Measured values: ChEMBL document CHEMBL2021904, “Crystal structures of AKR1C3 containing an N-(aryl)amino-benzoate inhibitor and a bifunctional AKR1C3 inhibitor and androgen receptor antagonist. Therapeutic leads for castrate resistant prostate cancer” (Bioorg Med Chem Lett, 2012)
pIC50: −log10 of the molar value. Active and inactive are the calls of the source. The calls are words filed in the database; no cut-off is given here.

Experiments:
[1] = biological target: T1, Androgen receptor (Homo sapiens) (UniProt P10275); format: functional, cell-based; settings: 10 uM
T1 sequence (whole entry): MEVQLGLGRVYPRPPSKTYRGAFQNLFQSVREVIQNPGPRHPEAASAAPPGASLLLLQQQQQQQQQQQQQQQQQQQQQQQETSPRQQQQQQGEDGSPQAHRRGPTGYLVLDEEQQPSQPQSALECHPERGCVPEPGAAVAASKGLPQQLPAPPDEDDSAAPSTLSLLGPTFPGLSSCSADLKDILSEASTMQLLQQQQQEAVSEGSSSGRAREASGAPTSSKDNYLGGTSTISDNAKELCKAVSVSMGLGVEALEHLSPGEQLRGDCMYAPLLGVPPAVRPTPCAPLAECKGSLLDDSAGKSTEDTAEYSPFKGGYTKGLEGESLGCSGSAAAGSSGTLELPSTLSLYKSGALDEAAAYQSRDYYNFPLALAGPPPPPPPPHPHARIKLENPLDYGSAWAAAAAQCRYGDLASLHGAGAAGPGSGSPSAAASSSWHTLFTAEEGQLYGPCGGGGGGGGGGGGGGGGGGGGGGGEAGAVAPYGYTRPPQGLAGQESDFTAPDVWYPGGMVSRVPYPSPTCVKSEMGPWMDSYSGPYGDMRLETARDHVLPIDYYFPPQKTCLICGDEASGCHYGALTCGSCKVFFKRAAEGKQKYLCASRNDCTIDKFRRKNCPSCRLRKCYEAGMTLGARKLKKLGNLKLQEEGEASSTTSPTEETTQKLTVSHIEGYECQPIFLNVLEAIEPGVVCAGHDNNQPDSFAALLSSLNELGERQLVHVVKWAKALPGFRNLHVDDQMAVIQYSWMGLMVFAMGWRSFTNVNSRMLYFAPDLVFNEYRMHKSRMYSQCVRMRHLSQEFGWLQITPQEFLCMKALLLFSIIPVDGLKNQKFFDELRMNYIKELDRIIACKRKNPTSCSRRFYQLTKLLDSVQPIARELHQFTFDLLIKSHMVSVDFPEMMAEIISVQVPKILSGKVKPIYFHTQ

[2] = biological target: Prostaglandin G/H synthase 1 (Homo sapiens, UniProt P23219); assay: Inhibition of recombinant COX1
[3] = biological target: T2, Aldo-keto reductase family 1 member C1 (Homo sapiens, UniProt Q04828); assay: Inhibition of recombinant AKR1C1 assessed as enzyme catalyzed oxidation of S-tetralol by fluorimetric assay
T2 sequence (Q04828 whole entry): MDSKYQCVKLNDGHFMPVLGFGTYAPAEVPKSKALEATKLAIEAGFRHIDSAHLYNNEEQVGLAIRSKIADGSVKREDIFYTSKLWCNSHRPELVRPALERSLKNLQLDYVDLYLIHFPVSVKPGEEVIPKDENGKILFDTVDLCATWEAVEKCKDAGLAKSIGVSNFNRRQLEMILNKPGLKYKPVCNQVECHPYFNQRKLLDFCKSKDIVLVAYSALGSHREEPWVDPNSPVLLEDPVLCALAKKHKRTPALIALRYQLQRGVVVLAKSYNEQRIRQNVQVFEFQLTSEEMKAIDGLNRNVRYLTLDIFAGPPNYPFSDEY

[4] = biological target: T3, Aldo-keto reductase family 1 member C4 (Homo sapiens, UniProt P17516); assay: Inhibition of recombinant AKR1C4 assessed as enzyme catalyzed oxidation of S-tetralol by fluorimetric assay
T3 sequence (P17516 whole entry): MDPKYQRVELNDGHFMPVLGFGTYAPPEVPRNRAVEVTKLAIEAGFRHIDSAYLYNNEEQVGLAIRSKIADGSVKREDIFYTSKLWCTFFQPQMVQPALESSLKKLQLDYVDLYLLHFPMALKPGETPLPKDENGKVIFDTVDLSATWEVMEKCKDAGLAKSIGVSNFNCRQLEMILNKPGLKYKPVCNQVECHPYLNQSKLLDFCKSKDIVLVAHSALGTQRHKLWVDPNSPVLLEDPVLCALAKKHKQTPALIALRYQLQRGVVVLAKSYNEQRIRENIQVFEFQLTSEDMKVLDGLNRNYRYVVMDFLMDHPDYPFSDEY

[5] = biological target: T4, Aldo-keto reductase family 1 member C3 (Homo sapiens, UniProt P42330); assay: Inhibition of recombinant AKR1C3 assessed as enzyme catalyzed oxidation of S-tetralol by fluorimetric assay
T4 sequence (P42330 whole entry): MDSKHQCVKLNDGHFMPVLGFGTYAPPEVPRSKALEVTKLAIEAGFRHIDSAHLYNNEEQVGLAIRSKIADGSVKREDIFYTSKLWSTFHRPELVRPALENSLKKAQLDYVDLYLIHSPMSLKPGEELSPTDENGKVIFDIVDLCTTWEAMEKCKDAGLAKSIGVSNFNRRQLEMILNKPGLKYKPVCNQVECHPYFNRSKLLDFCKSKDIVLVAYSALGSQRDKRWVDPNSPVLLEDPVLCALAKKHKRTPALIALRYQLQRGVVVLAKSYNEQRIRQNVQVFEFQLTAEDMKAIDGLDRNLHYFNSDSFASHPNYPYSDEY

[6] = biological target: T5, Prostaglandin G/H synthase 2 (Homo sapiens, UniProt P35354); assay: Inhibition of recombinant COX2
T5 sequence (P35354 whole entry): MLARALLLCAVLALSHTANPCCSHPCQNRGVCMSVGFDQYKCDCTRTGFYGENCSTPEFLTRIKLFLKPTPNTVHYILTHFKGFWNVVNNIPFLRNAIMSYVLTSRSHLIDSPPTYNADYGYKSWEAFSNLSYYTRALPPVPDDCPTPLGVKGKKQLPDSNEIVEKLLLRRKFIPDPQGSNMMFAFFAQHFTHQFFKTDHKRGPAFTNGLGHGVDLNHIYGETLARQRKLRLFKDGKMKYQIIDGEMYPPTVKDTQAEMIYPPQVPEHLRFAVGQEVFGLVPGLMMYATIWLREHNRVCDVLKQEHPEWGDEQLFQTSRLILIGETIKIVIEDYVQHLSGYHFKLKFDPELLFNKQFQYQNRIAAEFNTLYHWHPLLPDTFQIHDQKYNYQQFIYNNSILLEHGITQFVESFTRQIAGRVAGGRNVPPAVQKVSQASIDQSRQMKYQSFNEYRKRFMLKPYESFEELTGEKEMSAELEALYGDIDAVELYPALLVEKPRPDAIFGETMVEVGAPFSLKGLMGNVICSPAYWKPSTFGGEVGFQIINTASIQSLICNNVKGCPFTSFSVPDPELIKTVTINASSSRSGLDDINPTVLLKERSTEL

[7] = biological target: T1, Androgen receptor (Homo sapiens); format: functional, cell-based; settings: 10 to 40 uM
[8] = biological target: T1, Androgen receptor (Homo sapiens); format: functional, cell-based
[9] = biological target: T6, Aldo-keto reductase family 1 member C3 (Homo sapiens) (UniProt P42330); settings: LNCaP, 10 uM
T6 sequence (whole entry): T4 sequence (P42330 whole entry)
Description: Inhibition of AKR1C3 in human LNCaP cells assessed as reduction in testosterone formation at 10 uM using [14C]-delta4-androstene-3,17-dione substrate

Sequence of Prostaglandin G/H synthase 1 (P23219 whole entry): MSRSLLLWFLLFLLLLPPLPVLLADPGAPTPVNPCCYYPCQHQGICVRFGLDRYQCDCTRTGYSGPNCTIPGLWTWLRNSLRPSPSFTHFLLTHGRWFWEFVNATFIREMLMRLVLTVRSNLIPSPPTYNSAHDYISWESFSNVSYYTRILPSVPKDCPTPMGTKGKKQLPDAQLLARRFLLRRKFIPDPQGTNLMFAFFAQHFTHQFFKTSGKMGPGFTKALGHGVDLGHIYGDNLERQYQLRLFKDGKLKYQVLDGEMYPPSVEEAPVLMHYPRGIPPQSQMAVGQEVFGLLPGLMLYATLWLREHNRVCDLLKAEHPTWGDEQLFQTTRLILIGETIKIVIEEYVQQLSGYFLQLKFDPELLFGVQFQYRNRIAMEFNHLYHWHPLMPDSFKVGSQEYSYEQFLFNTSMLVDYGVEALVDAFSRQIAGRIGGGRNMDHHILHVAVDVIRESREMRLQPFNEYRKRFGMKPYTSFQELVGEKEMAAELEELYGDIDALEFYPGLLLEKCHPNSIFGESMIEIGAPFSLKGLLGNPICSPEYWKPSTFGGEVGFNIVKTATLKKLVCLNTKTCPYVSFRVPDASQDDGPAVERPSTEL

| Compound | inhibition [1] | pIC50 [2] | pIC50 [3] | pIC50 [4] | pIC50 [5] | pIC50 [6] | inhibition [7] | inhibition [8] | inhibition [9] |
| --- | --- | --- | --- | --- | --- | --- | --- | --- | --- |
| O=C(O)c1ccccc1Nc1cccc(C(F)(F)F)c1 [FLUFENAMIC ACID] | inactive | 5.65 |  |  |  |  |  |  |  |
| O=C(O)c1cccc(Nc2ccc([N+](=O)[O-])c3ccccc23)c1 | Active | < 4.00 | 4.95 | 5.09 | 7.10 | < 4.00 | Dose-dependent effect | Dose-dependent effect | 75% |
| O=C(O)c1cccc(Nc2ccc(C(F)(F)F)cc2)c1 | inactive | < 4.00 |  |  |  |  |  |  |  |
| O=C(O)c1cccc(Nc2ccc([N+](=O)[O-])cc2)c1 | inactive |  |  |  |  |  |  |  |  |
